Series [1] concerns CNT1. The settings on record: Slc28a1-/- vs Slc28a1+/+; urine collected over 12 h starvation; 8-week-old mice; n = 6.
Procedure: Linearity was established for analytes over the concentration ranges observed and the lower limit of quantification of the LC–MS/MS assay was approximately 0.1 ng/ml for each analyte (Fig. S2).
Standard solutions of all nucleotide targets were serially diluted to generate calibration solutions at concentrations of 0.0, 0.0001, 0.001, 0.01, 0.1, 1.0, and 10 µg/ml. Urine samples were prepared by adding 20 µL of urine solution to 80 µL of 50:50 H2O:MeOH containing internal standard, vortexing and centrifuging at 20,000 × g; then, 50 µL aliquots were placed into glass vials, dried in a SpeedVac and reconstituted in 5% MeOH with 0.1% formic acid for injection.
Samples were quantified using a heated electrospray ionization source (HESI) on a Thermo Scientific TQS Quantiva triple quadrupole mass spectrometer, and separation was achieved using a Thermo Scientific Ultimate 3000 HPLC equipped with an Agilent 120 SB-C18 reversed-phase column (2 × 100 mm, 2.7 µm particle size) maintained at 40 °C. […] For all experiments, the capillary voltage was set to 4.5 kV with a capillary temperature of 350 °C, a vaporizer temperature of 100 °C, a sheath gas flow of 12, an auxiliary gas flow of 13, and a 1.6 sweep gas. For selected reaction monitoring (SRM) mode, Q1 and Q3 were set to 0.7 full width at half maximum (FWHM) resolution, a cycle time of 0.8 s, and a CID gas pressure of 1.5 mTorr.
Series [2] in a line: Gemcitabine plasma pharmacokinetics in Slc28a1+/+ and Slc28a1-/- mice. The settings on record: Slc28a1+/+ and Slc28a1-/- mice; single i.v. dFdC 50 mg/kg.
Procedure: To collect blood, a 5 mm lancet was used to apply pressure to the submandibular vein and release blood flow. For retro-orbital collection, mice were anesthetized with 3% isoflurane in oxygen, and the blood was collected directly into heparinized capillary tubes by applying slight pressure to the medial canthus of the eye. Cardiac puncture was performed as the final collection method by first euthanizing the mice in a CO2 chamber and immediately performing posterior cardiac puncture by inserting a 27 G needle with a 1 ml syringe attachment into the heart. Once blood collection was completed, gentle pressure was applied to the blood collection area using gauze to stop the bleeding. Thirty microliters of blood was collected into heparinized capillary tubes at each time point, transferred into prelabeled 0.5 ml microcentrifuge tubes containing THU (10 µg/ml; final concentration), and immediately processed and snap-frozen following procedures outlined in the “Gemcitabine plasma pharmacokinetics” methods section.
Gemcitabine and dFdU plasma concentrations were measured using a modified version of our previously published UHPLC–MS/MS method for nucleosides[74] […] Noncompartmental pharmacokinetic parameters (Cmax, Tmax, AUC, CL, T1/2, etc.) were calculated using WinNonlin 6.2 software (Pharsight; Mountain View, CA). […] The Cmax and Tmax were obtained from the concentration-time curve. The AUC was calculated according to the linear trapezoidal rule up to the last time point with a measurable concentration of the analyte of interest. Significant differences between Slc28a1^+/+ and Slc28a1^−/− mouse pharmacokinetic parameters (p < 0.05) were evaluated with an unpaired two-sided Student’s t-test.
The resulting supernatant was evaporated to dryness in a SpeedVac, and the remaining residue was reconstituted in mobile phase A for subsequent analysis. […] Subsequent processing was identical to that for the plasma and urine samples.
Briefly, the analysis was performed on an Imtakt Schzero SM C18 column, 2.1 × 100 mm, 3.0 µm particle size. The eluents used consisted of mobile phase A consisting of 50 mM ammonium formate:50 mM ammonium hydroxide (9:1, v/v) (pH = 8.6) and mobile phase B consisting of 50 mM ammonium formate:50 mM ammonium hydroxide (9:1, v/v):ACN (80:20, v/v) (pH = 8.6). […] The injection volume was 10 μL, and the autosampler temperature was set at 4 °C throughout the analysis.
The Waters Triple Quadrupole Mass Spectrometer with an ESI source was operated in negative and positive ion mode at a spray voltage of 2.5 kV, capillary temperature of 150 °C, and vaporizer temperature of 250 °C. Compound optimization was performed manually using the MassLynx 4.1 Software AutoTune Wizard (Waters, Milford, MA) by infusion into the mass spectrometer using a T-connector. […] Analyze concentrations were determined and analyzed using MassLynx Mass Spectrometry Software (Waters; Milford, MA).
Series [3] can be described thus: Gemcitabine urine pharmacokinetics (renal excretion) in Slc28a1+/+ and Slc28a1-/- mice. The settings on record: WT and KO mouse urine pooled 10 min to 2 h after dFdC 50 mg/kg i.v. As for the experimental part: THU was added to the mouse urine samples upon collection and frozen until analysis. […] Five microliters of the diluted samples were transferred to a 96-well autosampler plate then 10 µL of internal standard mixture was added and mixed. […] The plate was then transferred to the 4 °C autosampler for analysis.
The chromatographic separation was performed on a Thermo Accucore aQ 2.6 µm, 100 ×2.1 mm column at 30 °C using a gradient with a 10 µL injection volume. The mobiles phases were 1 mM ammonium acetate in deionized water pH 6.8 and acetonitrile. The total run time was 5.5 min. […] The LC–MS/MS analysis was conducted on a Thermo Vanquish UHPLC with a TSQ Quantiva mass spectrometer equipped with an electrospray ionization source.

For `O=c1cc[nH]c(=O)[nH]1` [Uracil], the “fold increase of content in urine of Slc28a1-/- mice” value in series [1] is reported as 4.6 fold.

Consider `Nc1ccn([C@@H]2O[C@H](COP(=O)(O)OP(=O)(O)OP(=O)(O)O)[C@@H](O)C2(F)F)c(=O)n1` [dFdC-TP, dFdC triphosphate], for which the “plasma level after dFdC dosing” value in series [2] was “did not detect appreciable quantities”. In addition, the “level in urine after dFdC dosing” value in series [3] is listed as “below the limits of quantification”.

Turning to `Cc1cn([C@H]2C[C@H](O)[C@@H](CO)O2)c(=O)[nH]c1=O` [Thymidine], the “fold increase of content in urine of Slc28a1-/- mice” value in series [1] is on record as 7.5 fold.

The record behind these values is paper PMC10235067, “Increased renal elimination of endogenous and synthetic pyrimidine nucleosides in concentrative nucleoside transporter 1 deficient mice” (Nature Communications, 2023).
